Measurements reported in US20260151457A1, “Peptides and Fragments for Treating Diabetes and Associated Metabolic Diseases” (Betavive Ltd., priority 2024, published 2026).

Experiments:
mice = assay: Blood glucose concentration kinetics of IGF-2 vs. insulin in a glucose tolerance test; format: in vivo
Protocol: IGF-2 therefore provides an effect that mimics insulin within the body, and that effect is referred to herein as an “insulinomimetic” effect. […] More specifically, when 1 unit of insulin per kg was administered, the recovery in glucose levels began after two hours. But when 800 μg/kg of IGF-2 was administered, the recovery in glucose levels began after six hours. […] In this example, administering IGF-2 can provide better results than administering insulin with respect to blood glucose levels, even when only a single dose was used. Without being bound by this theory, it is possible that the IGF-2 combines with a number of binding proteins in the blood and its active free form is then released slowly from the complex.

db/db mice = assay: 14 hour fasting blood glucose in db/db mice treated with IGF-2; format: in vivo
Protocol: db/db mice are bred to have a leptin deficiency, increasing susceptibility of the mice to obesity, insulin resistance, and type 2 diabetes (T2D).
In this experiment, one group of db/db mice was injected with 3000 μg/kg/day of IGF-2 for 68 days, a second group of db/db mice was injected with 12000 μg/kg/day of IGF-2 for 66 days, and a third group of db/db mice was injected with saline once a day for 68 days.
In one experiment (left panel), one group of db/db mice was injected with a daily dose of 12000 μg/kg of IGF-2 divided in two injections per day for 70 days, while another group of db/db mice was injected with saline. […] In another experiment (right panel), one group of db/db mice was injected with a daily dose of 12000 μg/kg of IGF-2 divided in two injections per day for 35 days, while another group of db/db mice was injected with saline.
In one exemplary experiment, db/db mice were treated with a 12,000 μg/kg daily dose for 70 days with 70 days of follow up (during which IGF-2 was not administered). All the treated mice maintained normoglycemia for at least 50 days following treatment. In another exemplary experiment, db/db mice were treated with a 12,000 μg/kg daily dose for 35 days with 35 days of follow up (during which IGF-2 was not administered). All the treated mice maintained normoglycemia for 35 days following treatment.

β-MIN6 cells = assay: Cell count (proliferation) of β-MIN6 cells; format: cell-based, mouse; conditions: 5 nM, 20 nM, 80 nM, 1 week treatment
Source text: β-MIN6 cells serve as an in vitro model of mouse pancreatic islets. β-MIN6 cells were used as an in vitro model to measure the effects of treatment with IGF-2.

Human pancreatic islets = assay: Peptides efficacy on human pancreatic islets (IHC, digital quantitative pathological analysis); format: cell-based; conditions: IGF-2 500 nM, Peptide-20 1000 nM, five days
Protocol: Human pancreatic islets, obtained from Prodo Labs, were cultured in Prodo Labs PIM(S) media and maintained at 37° C. with 5% CO2 to ensure optimal viability. The islets were treated with IGF-2 (500 nM) and Peptide-20 (1000 nM) for five days under continuous exposure. After treatment, islets were collected and fixed in 4% paraformaldehyde (PFA) to preserve cellular and structural integrity. The samples were then processed for formalin-fixed paraffin-embedded (FFPE) histology. Sectioned islets were stained using immunohistochemistry (IHC) with specific markers to assess islet integrity, β-cell function, and proliferation. Microscopic Digital Quantitative Pathological Analysis provided critical insights into the effects of IGF-2 and Peptide-20 on islet structure and function. […] These findings establish Peptide-20 as a strong candidate for novel diabetes therapies aimed at restoring islet function and reversing β-cell loss. […] Their ability to enhance β-cell survival and proliferation positions them as strong candidates for the development of novel regenerative therapies, paving the way for innovative drug development aimed at reversing diabetes and restoring endogenous insulin production.

STZ-treated mice [1] = assay: Short term effects of a single IGF-2 injection on glucose and IGF-2 levels in STZ-treated mice; format: in vivo
Protocol: More specifically, the top panel illustrates the drop in glucose blood levels in three STZ-treated mice after receiving a 800 μg/kg/day dose of IGF-2 over a 240 minute time course. […] IGF-2 is part of a complex system comprising IGF-1 and IGF-2 along with binding proteins, proteases and other interacting molecules. A single 800 μg/kg dose of IGF-2 injected intraperitoneally lowers hyperglycemic blood glucose levels of 300-500 mg/dl to a normal level (100-200 mg/dL) for periods of over four hours. Normoglycemia is maintained while total serum IGF-2 is reduced to very low levels. […] Without being bound by this theory, it is believed that a slow release of IGF-2 from a serum complex can maintain normal blood glucose levels.

Beta-TC-6 cells = assay: Insulin secretion assay using Beta-TC-6 cells; format: cell-based; conditions: 2 hours, 500 mM of each peptide, Mouse Insulin ELISA
Protocol: To evaluate insulin secretion in response to peptide treatment, Beta-TC-6 cells were plated in 96-well culture plates at a density of 8×10^4 cells per well. After 48 hours of incubation, the cells were washed and preincubated in serum-free medium for 1 hour. Following this, cells were treated for 2 hours with 200 μl of serum-free medium supplemented with […] of each peptide. After the treatment period, the induction medium was collected and stored at −80° C. until analysis. Insulin levels in the collected medium were measured using the Mercodia Mouse Insulin ELISA Kit (#10-1247-01) according to the manufacturer's instructions. […] Results appear in FIG. 36.

STZ-treated mice [2] = assay: Intraperitoneal glucose tolerance test on STZ-treated mice treated with IGF-2; format: in vivo
Protocol: In this experiment, four STZ-treated mice were treated with 12,000 μg/kg/day of IGF-2 (four injections of 3000 μg/kg/day) 5 days and two mice were treated for 10 days. A glucose tolerance test was performed 50 days post-treatment with IGF-2 by challenging the treated mice with a 2 grams/kg dose of glucose and determining the blood glucose level over a 180 minute time course. The blood glucose curves of the treated mice were compared to results for a saline control, and normal (nondiabetic) obese and normal (nondiabetic) lean mice based on published literature (Jorgensen et al., J. Am Assoc. Lab. Animal Sci 2017 56 (1): 95-97).

[3] = Safety/toxicity: pathology of blood samples and tissue samples from thirty organs; format: in vivo; conditions: end of 10 days of treatment, 24 days after termination, and 100 days after termination of 30 days of treatment
[4] = single 800 μg/kg dose injected intraperitoneally

## insulin-like growth factor 2 [IGF-2]
mice; glucose tolerance test in mice
  Glucose level after administration: decreased
mice; insulin 1 unit per kg, IGF-2 800 μg/kg, single dose
  Time after which the recovery in glucose levels began: six
db/db mice; 3000 μg/kg/day for 68 days, first group b178, second group b179
  14 hour fasting blood glucose levels: reduced blood glucose levels (14 hour fasting blood glucose levels) to a normal range even after the end of the 68 day treatment period
db/db mice; 12,000 μg/kg daily for 35 days, 35 days of follow up
  Time all treated mice maintained normoglycemia following treatment: 35 days
db/db mice; 12,000 μg/kg daily for 70 days, 70 days of follow up
  Time all treated mice maintained normoglycemia following treatment: at least 50 days
db/db mice; 12000 μg/kg daily in two injections per day for 35 days
  14 hour fasting blood glucose levels: reduced blood glucose levels (14 hour fasting blood glucose levels) to a normal range even after the end of the 35 day treatment period
db/db mice; 12000 μg/kg daily in two injections per day for 70 days
  14 hour fasting blood glucose levels: reduced blood glucose levels (14 hour fasting blood glucose levels) to a normal range even after the end of the 70 day treatment period
db/db mice; 12000 μg/kg/day for 66-68 days, first group b178, second group b179
  14 hour fasting blood glucose levels: reduced blood glucose levels (14 hour fasting blood glucose levels) to a normal range even after the end of the 68 day treatment period
β-MIN6 cells
  Cell count (cell proliferation): increases cell proliferation in a dose-dependent manner
Human pancreatic islets
  Pancreatic islet regeneration, integrity and function: significant regenerative potential
STZ-treated mice [1]; 800 μg/kg dose, 240 minute time course
  Free IGF-2 levels relative to total IGF-2: a small fraction of the total IGF-2 concentration
STZ-treated mice [1]; [4]
  Blood glucose level reached from hyperglycemic 300-500 mg/dl: 100 to 200 mg/dL
  Period of normal blood glucose level after a single dose: over four
Beta-TC-6 cells
  Insulin secretion compared to the control: enhanced insulin secretion compared to the control
STZ-treated mice [2]; 12,000 μg/kg/day for 5 or 10 days, test 50 days post-treatment, 2 grams/kg glucose, 180 minutes
  Response to the glucose tolerance test (permanently cured mice): fell between the glucose tolerance results from the literature for non-diabetic obese mice and non-diabetic lean mice
STZ-treated mice [2]; 12,000 μg/kg/day, test 50 days post-treatment, 2 grams/kg glucose
  Glucose levels in the glucose tolerance test (Mouse 01, not permanently cured): higher than the normal obese mouse
STZ-treated mice [2]; six STZ mice treated with 12,000 μg/kg/day, four for 5 days and two for 10 days
  Number of IGF-2-treated mice permanently cured: Five
[3]
  Pathologies related to treatment in blood samples and tissue samples from thirty organs: No pathologies were identified
